Assay results: PubChem BioAssay (NCI)
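All cell lines were grown in 96-well plates and treated with compound for 48 hours. TGI marks complete inhibition of growth.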

Key:
Experiment in all cases: growth of human tumour cells (NCI), 48 h
HS 578T breast = test system: HS 578T breast
A549 NSCLC = test system: A549 NSCLC
NCI-H226 lung = test system: NCI-H226 lung
HCT-116 colon = test system: HCT-116 colon
MDA-N = test system: MDA-N
MDA-MB-435 = test system: MDA-MB-435
IGROV1 ovarian = test system: IGROV1 ovarian
M14 melanoma = test system: M14 melanoma
LOX IMVI melanoma = test system: LOX IMVI melanoma
NCI-H23 lung = test system: NCI-H23 lung
HOP-62 NSCLC = test system: HOP-62 NSCLC
K-562 leukemia = test system: K-562 leukemia
SN12C renal = test system: SN12C renal
TK-10 renal = test system: TK-10 renal
MOLT-4 leukemia = test system: MOLT-4 leukemia
HCT-15 colon = test system: HCT-15 colon
SF-539 CNS = test system: SF-539 CNS
MDA-MB-231 breast = test system: MDA-MB-231 breast
UACC-257 melanoma = test system: UACC-257 melanoma
COLO 205 colon = test system: COLO 205 colon
MCF7 breast = test system: MCF7 breast
CAKI-1 renal = test system: CAKI-1 renal
NCI-H460 lung = test system: NCI-H460 lung
ACHN renal = test system: ACHN renal
KM12 colon = test system: KM12 colon
HOP-92 NSCLC = test system: HOP-92 NSCLC
PC-3 prostate = test system: PC-3 prostate
A498 renal = test system: A498 renal
EKVX NSCLC = test system: EKVX NSCLC
SK-MEL-5 melanoma = test system: SK-MEL-5 melanoma
U251 CNS = test system: U251 CNS
786-0 renal = test system: 786-0 renal
NCI/ADR-RES ovarian = test system: NCI/ADR-RES ovarian
HL-60(TB) leukemia = test system: HL-60(TB) leukemia
SF-295 CNS = test system: SF-295 CNS
CCRF-CEM leukemia = test system: CCRF-CEM leukemia
SF-268 CNS = test system: SF-268 CNS
NCI-H522 lung = test system: NCI-H522 lung
SNB-19 CNS = test system: SNB-19 CNS
OVCAR-4 ovarian = test system: OVCAR-4 ovarian
SK-MEL-2 melanoma = test system: SK-MEL-2 melanoma
SK-OV-3 ovarian = test system: SK-OV-3 ovarian
HT29 colon = test system: HT29 colon
RXF 393 renal = test system: RXF 393 renal
MALME-3M melanoma = test system: MALME-3M melanoma
RPMI-8226 leukemia = test system: RPMI-8226 leukemia
OVCAR-8 ovarian = test system: OVCAR-8 ovarian
SW-620 colon = test system: SW-620 colon
OVCAR-5 ovarian = test system: OVCAR-5 ovarian
T-47D breast = test system: T-47D breast
HCC-2998 colon = test system: HCC-2998 colon
BT-549 breast = test system: BT-549 breast
DU-145 prostate = test system: DU-145 prostate
SNB-75 CNS = test system: SNB-75 CNS
UO-31 renal = test system: UO-31 renal
OVCAR-3 ovarian = test system: OVCAR-3 ovarian
UACC-62 melanoma = test system: UACC-62 melanoma
SK-MEL-28 melanoma = test system: SK-MEL-28 melanoma

O=C1Cc2c([nH]c3ccc([N+](=O)[O-])cc23)-c2ccccc2N1
TGI (HS 578T breast): > 21.2 µM
TGI (A549 NSCLC): > 56.8 µM
TGI (NCI-H226 lung): 18.2 µM
TGI (HCT-116 colon): 1.96 µM
TGI (MDA-N): 8.44 µM
TGI (MDA-MB-435): > 100 µM
TGI (IGROV1 ovarian): > 100 µM
TGI (M14 melanoma): > 30 µM
TGI (LOX IMVI melanoma): > 100 µM
TGI (NCI-H23 lung): 6.37 µM
TGI (HOP-62 NSCLC): 18.8 µM
TGI (K-562 leukemia): 9.23 µM
TGI (SN12C renal): 19.1 µM
TGI (TK-10 renal): > 37.9 µM
TGI (MOLT-4 leukemia): 1.44 µM
TGI (HCT-15 colon): > 100 µM
TGI (SF-539 CNS): 16.8 µM
TGI (MDA-MB-231 breast): > 100 µM
TGI (UACC-257 melanoma): > 62.8 µM
TGI (COLO 205 colon): 1.16 µM
TGI (MCF7 breast): > 100 µM
TGI (CAKI-1 renal): > 95.7 µM
TGI (NCI-H460 lung): > 63 µM
TGI (ACHN renal): > 18.2 µM
TGI (KM12 colon): > 55.1 µM
TGI (HOP-92 NSCLC): > 100 µM
TGI (PC-3 prostate): > 100 µM
TGI (A498 renal): > 19.7 µM
TGI (EKVX NSCLC): 2.38 µM
TGI (SK-MEL-5 melanoma): 2.02 µM
TGI (U251 CNS): > 83.1 µM
TGI (786-0 renal): > 100 µM
TGI (NCI/ADR-RES ovarian): > 84 µM
TGI (HL-60(TB) leukemia): 0.752 µM
TGI (SF-295 CNS): > 100 µM
TGI (CCRF-CEM leukemia): 0.325 µM
TGI (SF-268 CNS): > 94.6 µM
TGI (NCI-H522 lung): > 26.2 µM
TGI (SNB-19 CNS): > 32.7 µM
TGI (OVCAR-4 ovarian): 6.11 µM
TGI (SK-MEL-2 melanoma): 5.62 µM
TGI (SK-OV-3 ovarian): > 100 µM
TGI (HT29 colon): 4.46 µM
TGI (RXF 393 renal): 14.6 µM
TGI (MALME-3M melanoma): > 100 µM
TGI (RPMI-8226 leukemia): 2.98 µM
TGI (OVCAR-8 ovarian): > 100 µM
TGI (SW-620 colon): > 58.5 µM
TGI (OVCAR-5 ovarian): 0.77 µM
TGI (T-47D breast): > 100 µM
TGI (HCC-2998 colon): > 49.1 µM
TGI (BT-549 breast): > 100 µM

N#Cc1cc(-c2nc3ccc(F)cc3s2)ccc1N
TGI (HS 578T breast): > 100 µM
TGI (DU-145 prostate): > 100 µM
TGI (A549 NSCLC): > 100 µM
TGI (NCI-H226 lung): > 100 µM
TGI (HCT-116 colon): > 100 µM
TGI (MDA-N): > 100 µM
TGI (MDA-MB-435): > 100 µM
TGI (IGROV1 ovarian): > 100 µM
TGI (M14 melanoma): > 100 µM
TGI (LOX IMVI melanoma): > 100 µM
TGI (NCI-H23 lung): > 100 µM
TGI (HOP-62 NSCLC): > 100 µM
TGI (K-562 leukemia): > 100 µM
TGI (SN12C renal): > 100 µM
TGI (TK-10 renal): > 100 µM
TGI (MOLT-4 leukemia): > 100 µM
TGI (HCT-15 colon): > 100 µM
TGI (SF-539 CNS): > 100 µM
TGI (MDA-MB-231 breast): > 100 µM
TGI (UACC-257 melanoma): > 100 µM
TGI (COLO 205 colon): > 100 µM
TGI (MCF7 breast): > 100 µM
TGI (CAKI-1 renal): > 100 µM
TGI (NCI-H460 lung): > 100 µM
TGI (ACHN renal): > 100 µM
TGI (KM12 colon): > 100 µM
TGI (HOP-92 NSCLC): > 100 µM
TGI (SNB-75 CNS): > 100 µM
TGI (PC-3 prostate): > 100 µM
TGI (A498 renal): > 100 µM
TGI (EKVX NSCLC): > 100 µM
TGI (SK-MEL-5 melanoma): > 100 µM
TGI (U251 CNS): > 100 µM
TGI (786-0 renal): > 100 µM
TGI (UO-31 renal): > 100 µM
TGI (NCI/ADR-RES ovarian): > 100 µM
TGI (HL-60(TB) leukemia): > 100 µM
TGI (SF-295 CNS): > 100 µM
TGI (CCRF-CEM leukemia): > 100 µM
TGI (SF-268 CNS): > 100 µM
TGI (NCI-H522 lung): > 100 µM
TGI (SNB-19 CNS): > 100 µM
TGI (OVCAR-4 ovarian): > 100 µM
TGI (OVCAR-3 ovarian): > 100 µM
TGI (SK-OV-3 ovarian): 96.6 µM
TGI (HT29 colon): > 100 µM
TGI (RXF 393 renal): > 100 µM
TGI (UACC-62 melanoma): > 100 µM
TGI (MALME-3M melanoma): > 100 µM
TGI (RPMI-8226 leukemia): > 100 µM
TGI (OVCAR-8 ovarian): > 100 µM
TGI (SW-620 colon): > 100 µM
TGI (OVCAR-5 ovarian): > 100 µM
TGI (T-47D breast): > 100 µM
TGI (BT-549 breast): > 100 µM

CNc1cc(OCc2ccccc2)c(OC)cc1C(=O)N1CCC[C@H]1CO
TGI (HS 578T breast): > 100 µM
TGI (DU-145 prostate): > 100 µM
TGI (A549 NSCLC): > 100 µM
TGI (NCI-H226 lung): > 100 µM
TGI (HCT-116 colon): > 100 µM
TGI (MDA-N): > 100 µM
TGI (MDA-MB-435): > 100 µM
TGI (IGROV1 ovarian): > 100 µM
TGI (M14 melanoma): > 100 µM
TGI (LOX IMVI melanoma): > 100 µM
TGI (NCI-H23 lung): > 100 µM
TGI (HOP-62 NSCLC): > 100 µM
TGI (SN12C renal): > 100 µM
TGI (TK-10 renal): > 100 µM
TGI (MOLT-4 leukemia): > 100 µM
TGI (HCT-15 colon): > 100 µM
TGI (SF-539 CNS): > 100 µM
TGI (MDA-MB-231 breast): > 100 µM
TGI (UACC-257 melanoma): > 100 µM
TGI (COLO 205 colon): > 100 µM
TGI (MCF7 breast): > 100 µM
TGI (CAKI-1 renal): > 100 µM
TGI (ACHN renal): > 100 µM
TGI (KM12 colon): > 100 µM
TGI (SNB-75 CNS): > 100 µM
TGI (PC-3 prostate): > 100 µM
TGI (A498 renal): > 100 µM
TGI (EKVX NSCLC): > 100 µM
TGI (SK-MEL-5 melanoma): > 100 µM
TGI (U251 CNS): > 100 µM
TGI (786-0 renal): > 100 µM
TGI (UO-31 renal): > 100 µM
TGI (NCI/ADR-RES ovarian): > 100 µM
TGI (HL-60(TB) leukemia): > 100 µM
TGI (SF-295 CNS): > 100 µM
TGI (CCRF-CEM leukemia): > 100 µM
TGI (SK-MEL-28 melanoma): > 100 µM
TGI (SF-268 CNS): > 100 µM
TGI (NCI-H522 lung): > 100 µM
TGI (SNB-19 CNS): > 100 µM
TGI (OVCAR-4 ovarian): > 100 µM
TGI (SK-MEL-2 melanoma): > 100 µM
TGI (SK-OV-3 ovarian): > 100 µM
TGI (HT29 colon): > 100 µM
TGI (RXF 393 renal): > 100 µM
TGI (UACC-62 melanoma): > 100 µM
TGI (MALME-3M melanoma): > 100 µM
TGI (OVCAR-8 ovarian): > 100 µM
TGI (SW-620 colon): > 100 µM
TGI (OVCAR-5 ovarian): > 100 µM
TGI (T-47D breast): > 100 µM
TGI (BT-549 breast): > 100 µM
